Laboratory results reported in PubChem BioAssay (NCI).
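The compound was tested at five concentrations on cells cultured in 96-well plates, with a 48-hour exposure period. TGI: concentration producing complete growth inhibition.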

Columns and labels:
Assay in all cases: DTP human tumour cell line panel, 48 h
COLO 205 colon = system: COLO 205 colon
DLD-1 colon = system: DLD-1 colon
A549 NSCLC = system: A549 NSCLC
HCT-15 colon = system: HCT-15 colon
MDA-MB-231 breast = system: MDA-MB-231 breast
A498 renal = system: A498 renal
MOLT-4 leukemia = system: MOLT-4 leukemia
BT-549 breast = system: BT-549 breast
SNB-78 CNS = system: SNB-78 CNS
MCF7 breast = system: MCF7 breast
SW-620 colon = system: SW-620 colon
HOP-62 NSCLC = system: HOP-62 NSCLC
RPMI-8226 leukemia = system: RPMI-8226 leukemia
SK-OV-3 ovarian = system: SK-OV-3 ovarian
HS 578T breast = system: HS 578T breast
SNB-75 CNS = system: SNB-75 CNS
SK-MEL-28 melanoma = system: SK-MEL-28 melanoma
MDA-MB-435 = system: MDA-MB-435
U251 CNS = system: U251 CNS
LXFL 529 NSCLC = system: LXFL 529 NSCLC
ACHN renal = system: ACHN renal
KM20L2 colon = system: KM20L2 colon
SR leukemia = system: SR leukemia
SK-MEL-2 melanoma = system: SK-MEL-2 melanoma
UACC-62 melanoma = system: UACC-62 melanoma
SF-295 CNS = system: SF-295 CNS
UACC-257 melanoma = system: UACC-257 melanoma
K-562 leukemia = system: K-562 leukemia
HOP-92 NSCLC = system: HOP-92 NSCLC
DU-145 prostate = system: DU-145 prostate
DMS 114 small cell lung = system: DMS 114 small cell lung
OVCAR-5 ovarian = system: OVCAR-5 ovarian
HOP-18 NSCLC = system: HOP-18 NSCLC
SNB-19 CNS = system: SNB-19 CNS
KM12 colon = system: KM12 colon
786-0 renal = system: 786-0 renal
SF-268 CNS = system: SF-268 CNS
OVCAR-4 ovarian = system: OVCAR-4 ovarian
OVCAR-8 ovarian = system: OVCAR-8 ovarian
EKVX NSCLC = system: EKVX NSCLC
MDA-N = system: MDA-N
OVCAR-3 ovarian = system: OVCAR-3 ovarian
DMS 273 small cell lung = system: DMS 273 small cell lung
HL-60(TB) leukemia = system: HL-60(TB) leukemia
MALME-3M melanoma = system: MALME-3M melanoma
SF-539 CNS = system: SF-539 CNS
UO-31 renal = system: UO-31 renal
HCT-116 colon = system: HCT-116 colon
NCI-H460 lung = system: NCI-H460 lung
T-47D breast = system: T-47D breast
NCI-H226 lung = system: NCI-H226 lung
HCC-2998 colon = system: HCC-2998 colon
M19-MEL melanoma = system: M19-MEL melanoma
NCI/ADR-RES ovarian = system: NCI/ADR-RES ovarian
CCRF-CEM leukemia = system: CCRF-CEM leukemia
RXF 393 renal = system: RXF 393 renal
TK-10 renal = system: TK-10 renal
PC-3 prostate = system: PC-3 prostate
M14 melanoma = system: M14 melanoma
LOX IMVI melanoma = system: LOX IMVI melanoma
IGROV1 ovarian = system: IGROV1 ovarian
NCI-H522 lung = system: NCI-H522 lung
SN12C renal = system: SN12C renal
HT29 colon = system: HT29 colon
CAKI-1 renal = system: CAKI-1 renal
NCI-H23 lung = system: NCI-H23 lung
SK-MEL-5 melanoma = system: SK-MEL-5 melanoma

Cc1c(C)c(CC(=O)N2CC2)c(C)c(C)c1CC(=O)N1CC1
TGI (COLO 205 colon): 29.5 µM | TGI (DLD-1 colon): 56.5 µM | TGI (A549 NSCLC): 50.3 µM | TGI (HCT-15 colon): > 58.2 µM | TGI (MDA-MB-231 breast): 48.1 µM | TGI (A498 renal): 32.1 µM | TGI (MOLT-4 leukemia): 2.91 µM | TGI (BT-549 breast): 51.4 µM | TGI (SNB-78 CNS): 57.3 µM | TGI (MCF7 breast): 63.4 µM | TGI (SW-620 colon): > 57.2 µM | TGI (HOP-62 NSCLC): 44.2 µM | TGI (RPMI-8226 leukemia): 55.5 µM | TGI (SK-OV-3 ovarian): 99.5 µM | TGI (HS 578T breast): 81.9 µM | TGI (SNB-75 CNS): 50.8 µM | TGI (SK-MEL-28 melanoma): 37.6 µM | TGI (MDA-MB-435): 33.6 µM | TGI (U251 CNS): > 67.3 µM | TGI (LXFL 529 NSCLC): 37.9 µM | TGI (ACHN renal): 25.7 µM | TGI (KM20L2 colon): 47.3 µM | TGI (SR leukemia): 4.79 µM | TGI (SK-MEL-2 melanoma): 32.6 µM | TGI (UACC-62 melanoma): 17.2 µM | TGI (SF-295 CNS): 60.5 µM | TGI (UACC-257 melanoma): 50 µM | TGI (K-562 leukemia): > 92.7 µM | TGI (HOP-92 NSCLC): 44.9 µM | TGI (DU-145 prostate): 15.8 µM | TGI (DMS 114 small cell lung): 24.5 µM | TGI (OVCAR-5 ovarian): > 83.8 µM | TGI (HOP-18 NSCLC): 75.3 µM | TGI (SNB-19 CNS): > 100 µM | TGI (KM12 colon): 40.3 µM | TGI (786-0 renal): > 65.9 µM | TGI (SF-268 CNS): 23.1 µM | TGI (OVCAR-4 ovarian): 44.8 µM | TGI (OVCAR-8 ovarian): > 49.6 µM | TGI (EKVX NSCLC): 65.8 µM | TGI (MDA-N): 34.2 µM | TGI (OVCAR-3 ovarian): 51.4 µM | TGI (DMS 273 small cell lung): 13.2 µM | TGI (HL-60(TB) leukemia): 10.3 µM | TGI (MALME-3M melanoma): 27.1 µM | TGI (SF-539 CNS): 16.5 µM | TGI (UO-31 renal): 38.7 µM | TGI (HCT-116 colon): 28.5 µM | TGI (NCI-H460 lung): 50.2 µM | TGI (T-47D breast): 80.5 µM | TGI (NCI-H226 lung): 43.6 µM | TGI (HCC-2998 colon): 25.2 µM | TGI (M19-MEL melanoma): 27.4 µM | TGI (NCI/ADR-RES ovarian): 74.4 µM | TGI (CCRF-CEM leukemia): > 48.8 µM | TGI (RXF 393 renal): 12.8 µM | TGI (TK-10 renal): > 83 µM | TGI (PC-3 prostate): 58.2 µM | TGI (M14 melanoma): 18.9 µM | TGI (LOX IMVI melanoma): > 49 µM | TGI (IGROV1 ovarian): 43.2 µM | TGI (NCI-H522 lung): 27.1 µM | TGI (SN12C renal): > 56.7 µM | TGI (HT29 colon): > 75.1 µM | TGI (CAKI-1 renal): 32.4 µM | TGI (NCI-H23 lung): 39.4 µM

CC1OC(c2ccc3c(c2O)C(=O)C2=C(C3=O)C3(O)C(=O)CC(C)(O)CC3(O)C=C2)CC(O)C1O (stereo not given)
TGI (COLO 205 colon): 3.39 µM | TGI (A549 NSCLC): > 73.5 µM | TGI (HCT-15 colon): 29.7 µM | TGI (MDA-MB-231 breast): 6.17 µM | TGI (A498 renal): 34.5 µM | TGI (MOLT-4 leukemia): 15.3 µM | TGI (BT-549 breast): 32.8 µM | TGI (MCF7 breast): 9 µM | TGI (SW-620 colon): 21.7 µM | TGI (HOP-62 NSCLC): 60.7 µM | TGI (RPMI-8226 leukemia): 48.1 µM | TGI (SK-OV-3 ovarian): > 100 µM | TGI (HS 578T breast): 53.2 µM | TGI (SNB-75 CNS): 48.7 µM | TGI (SK-MEL-28 melanoma): 29.4 µM | TGI (MDA-MB-435): > 42.5 µM | TGI (U251 CNS): 31.4 µM | TGI (ACHN renal): 26.5 µM | TGI (SR leukemia): 33.5 µM | TGI (SK-MEL-2 melanoma): 42.4 µM | TGI (UACC-62 melanoma): 30.4 µM | TGI (SF-295 CNS): 34.2 µM | TGI (UACC-257 melanoma): 29.3 µM | TGI (K-562 leukemia): 14.3 µM | TGI (HOP-92 NSCLC): 30.7 µM | TGI (DU-145 prostate): 29.1 µM | TGI (OVCAR-5 ovarian): 31.8 µM | TGI (SNB-19 CNS): 58.8 µM | TGI (KM12 colon): > 60.6 µM | TGI (786-0 renal): 33.6 µM | TGI (SF-268 CNS): > 60 µM | TGI (OVCAR-4 ovarian): 27.2 µM | TGI (OVCAR-8 ovarian): 51.5 µM | TGI (EKVX NSCLC): 33.9 µM | TGI (MDA-N): 11.7 µM | TGI (OVCAR-3 ovarian): 15.8 µM | TGI (HL-60(TB) leukemia): 4.07 µM | TGI (MALME-3M melanoma): 12.8 µM | TGI (SF-539 CNS): 35.6 µM | TGI (UO-31 renal): 36.9 µM | TGI (HCT-116 colon): 17.5 µM | TGI (SK-MEL-5 melanoma): 22.9 µM | TGI (NCI-H460 lung): > 64.9 µM | TGI (T-47D breast): 28.3 µM | TGI (NCI-H226 lung): 49.8 µM | TGI (HCC-2998 colon): 31.7 µM | TGI (NCI/ADR-RES ovarian): 51.8 µM | TGI (CCRF-CEM leukemia): 5.27 µM | TGI (RXF 393 renal): 26.8 µM | TGI (TK-10 renal): 28.6 µM | TGI (PC-3 prostate): 65.7 µM | TGI (M14 melanoma): 30.7 µM | TGI (LOX IMVI melanoma): 30.9 µM | TGI (IGROV1 ovarian): 27.9 µM | TGI (NCI-H522 lung): 5.86 µM | TGI (SN12C renal): 28.2 µM | TGI (HT29 colon): 19.6 µM | TGI (CAKI-1 renal): 19.7 µM | TGI (NCI-H23 lung): 45.6 µM
